In patent US20240124442A1, “TRICYCLIC-AMIDO-BICYCLIC PRMT5 INHIBITORS” (AMGEN INC., priority 2021, published 2024):

Columns and labels:
HCT116 MTAP null cells = assay: HCT116 MTAP null cell line proliferation / cell viability (CellTiter-Glo, 6 days); format: cell-based; conditions: 144 h; HCT116 MTAP null cells, 6 days treatment, CellTiter-Glo cell viability; read-out: HCT-116 MTAP null IC50
Summary of the method: (§1)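 Isogenic HCT116 pair (parental and MTAP-knockout) in RPMI 1640 + 10% FBS, treated 6 days with 8–9-point 1:3 dilutions from 1 or 10 μM top, or 22-point 1:2 dilutions from 10 or 50 μM top. Viability by CellTiter-Glo luminescence; IC50 from 4-parameter logistic fit or sigmoidal fit with Hill slope fixed at −1.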

HCT116 WT cells = assay: HCT116 WT (parent) cell line proliferation / cell viability (CellTiter-Glo, 6 days); format: cell-based; conditions: Homo sapiens, HCT-116, 144 h, 6 days treatment
Summary of the method: as §1

Compound | IC50 (HCT116 MTAP null cells) [nM] | IC50 (HCT116 WT cells) [nM]
CN(C(=O)c1ccc2nc(N)c3cnn(C)c3c2c1)[C@@H]1COc2cc(-c3csc(C(F)(F)F)n3)ccc21 [Example 655, 4-amino-N,1-dimethyl-N-((3S)-6-(2-(trifluoromethyl)-1,3-thiazol-4-yl)-2,3-dihydro-1-benzofuran-3-yl)-1H-pyrazolo[4,3-c]quinoline-8-carboxamide] | 28 | 946
CN(C(=O)c1ccc2nc(N)c3cnn(C)c3c2c1)[C@@H]1COc2cc(-c3ccc4c(c3)OC(F)(F)O4)ccc21 [Example 657, 4-amino-N-((3S)-6-(2,2-difluoro-1,3-benzodioxol-5-yl)-2,3-dihydro-1-benzofuran-3-yl)-N,1-dimethyl-1H-pyrazolo[4,3-c]quinoline-8-carboxamide] | 37 | 1710
CN(C(=O)c1ccc2nc(N)c3cnn(C)c3c2c1)[C@@H]1COc2cc(-c3ccc(OC(F)(F)F)cc3)ccc21 [Example 658, 4-amino-N,1-dimethyl-N-((3S)-6-(4-(trifluoromethoxy)phenyl)-2,3-dihydro-1-benzofuran-3-yl)-1H-pyrazolo[4,3-c]quinoline-8-carboxamide] | 42 | 630
CN(C(=O)c1cc2c3c(c(N)nc2cc1F)COC3)[C@@H]1COc2cc(-c3ccc(S(F)(F)(F)(F)F)cc3)ccc21 [Example 667, 4-amino-7-fluoro-N-methyl-N-((3S)-6-(4-(pentafluoro-lambda~6 ~- sulfanyl)phenyl)-2,3-dihydro-1-benzofuran-3-yl)-1,3-dihydrofuro[3,4-c]quinoline-8-carboxamide] | 383 | 7060
CN(C(=O)c1ccc2nc(N)c3cnn(C)c3c2c1)[C@@H]1COc2cc(-c3ccc(S(F)(F)(F)(F)F)cc3)ccc21 [Example 668, 4-amino-N,1-dimethyl-N-((3S)-6-(4-(pentafluoro-lambda~6~- sulfanyl)phenyl)-2,3-dihydro-1-benzofuran-3-yl)-1H-pyrazolo[4,3-c]quinoline-8-carboxamide] | 85 | 2920
COc1ccc2c(c1)OC[C@H]2N(C)C(=O)c1ccc2nc(N)c3cnn(C)c3c2c1 [Example 671, (S)-4-amino-N-(6-methoxy-2,3-dihydrobenzofuran-3-yl)-N,1-dimethyl-1H-pyrazolo[4,3-c]quinoline-8-carboxamide] | 34 | 4280
CN(C(=O)c1ccc2nc(N)c3cnn(C)c3c2c1)[C@@H]1COc2cc(OC3CC3)ccc21 [Example 672, (S)-4-amino-N-(6-cyclopropoxy-2,3-dihydrobenzofuran-3-yl)-N,1-dimethyl-1H-pyrazolo[4,3-c]quinoline-8-carboxamide 2,2,2-trifluoroacetate] | 44 | 3520
CN(C(=O)c1ccc2nc(N)c3cnn(C)c3c2c1)[C@@H]1COc2ccccc21 [Example 673, (S)-4-amino-N-(2,3-dihydrobenzofuran-3-yl)-N,1-dimethyl-1H-pyrazolo[4,3-c]quinoline-8-carboxamide 2,2,2-trifluoroacetate] | 120 | 13100
CCOc1ccc2c(c1)OC[C@H]2N(C)C(=O)c1cc2c3c(c(N)nc2cn1)COC3 [Example 674, 4-amino-N-((3S)-6-ethoxy-2,3-dihydro-1-benzofuran-3-yl)-N-methyl-1,3-dihydrofuro[3,4-c][1,7]naphthyridine-8-carboxamide] | 156 | 8610
CCOc1ccc2c(c1)OC[C@H]2N(C)C(=O)c1ccc2nc(N)c3cnn(C)c3c2c1 [Example 675, 4-amino-N-((3S)-6-ethoxy-2,3-dihydro-1-benzofuran-3-yl)-N,1-dimethyl-1H-pyrazolo[4,3-c]quinoline-8-carboxamide] | 25 | 2750
CN(C(=O)c1ccc2nc(N)c3cnn(C)c3c2c1)[C@@H]1COc2cc(OC3CCC3)ccc21 [Example 676, 4-amino-N-((3S)-6-(cyclobutyloxy)-2,3-dihydro-1-benzofuran-3-yl)-N,1-dimethyl-1H-pyrazolo[4,3-c]quinoline-8-carboxamide] | 40 | 2590
CN(C(=O)c1ccc2nc(N)c3cnn(C)c3c2c1)[C@@H]1COc2cc(OC3COC3)ccc21 [Example 677, 4-amino-N,1-dimethyl-N-((3S)-6-(3-oxetanyloxy)-2,3-dihydro-1-benzofuran-3-yl)-1H-pyrazolo[4,3-c]quinoline-8-carboxamide] | 137 | 9810
COCCOc1ccc2c(c1)OC[C@H]2N(C)C(=O)c1ccc2nc(N)c3cnn(C)c3c2c1 [Example 678, 4-amino-N-((3S)-6-(2-methoxyethoxy)-2,3-dihydro-1-benzofuran-3-yl)-N,1-dimethyl-1H-pyrazolo[4,3-c]quinoline-8-carboxamide] | 29 | 2780
Cc1ccc2c(n1)COC[C@H]2N(C)C(=O)c1ccc2nc(N)c3cnn(C)c3c2c1 [Example 679, (S)-4-amino-N,1-dimethyl-N-(2-methyl-5,8-dihydro-6H-pyrano[3,4-b]pyridin-5-yl)-1H-pyrazolo[4,3-c]quinoline-8-carboxamide] | 26 | 2270
Cc1ccc2c(c1)OC[C@H]2N(C)C(=O)c1ccc2nc(N)c3cnn(C)c3c2c1 [Example 683, 4-amino-N,1-dimethyl-N-((3S)-6-methyl-2,3-dihydro-1-benzofuran-3-yl)-1H-pyrazolo[4,3-c]quinoline-8-carboxamide] | 38 | 3580
CN(C(=O)c1ccc2nc(N)c3cnn(C)c3c2c1)[C@@H]1COc2cc(CO)ccc21 [Example 686, (S)-4-amino-N-(6-(hydroxymethyl)-2,3-dihydrobenzofuran-3-yl)-N,1-dimethyl-1H-pyrazolo[4,3-c]quinoline-8-carboxamide] | 129 | 11400
CC(=O)N1CC=C(c2ccc3c(c2)OCC3N(C)C(=O)c2ccc3nc(N)c4c(c3c2)COC4)CC1 (stereo not shown) [Example 689, N-(6-(1-acetyl-1,2,3,6-tetrahydropyridin-4-yl)-2,3-dihydrobenzofuran-3-yl)-4-amino-N-methyl-1,3-dihydrofuro[3,4-c]quinoline-8-carboxamide] | 101 | 4540

Results, then the molecule that gave them:

IC50 (HCT116 MTAP null cells) [nM] | IC50 (HCT116 WT cells) [nM] | Compound
6 | 511 | CN(C(=O)c1ccc2nc(N)c3cnn(C)c3c2c1)[C@@H]1COc2cc(-c3cnc(C(F)(F)F)s3)ccc21 [Example 656, 4-amino-N,1-dimethyl-N-((3S)-6-(2-(trifluoromethyl)-1,3-thiazol-5-yl)-2,3-dihydro-1-benzofuran-3-yl)-1H-pyrazolo[4,3-c]quinoline-8-carboxamide]
25 | 1280 | CN(C(=O)c1ccc2nc(N)c3cnn(C)c3c2c1)[C@@H]1COc2cc(-c3cc(F)cc(OC(F)F)c3)ccc21 [Example 659, 4-amino-N-((3S)-6-(3-(difluoromethoxy)-5-fluorophenyl)-2,3-dihydro-1-benzofuran-3-yl)-N,1-dimethyl-1H-pyrazolo[4,3-c]quinoline-8-carboxamide]
15 | 657 | CN(C(=O)c1ccc2nc(N)c3cnn(C)c3c2c1)[C@@H]1COc2cc(-c3cc(C(F)(F)F)ccc3F)ccc21 [Example 660, 4-amino-N-((3S)-6-(2-fluoro-5-(trifluoromethyl)phenyl)-2,3-dihydro-1-benzofuran-3-yl)-N,1-dimethyl-1H-pyrazolo[4,3-c]quinoline-8-carboxamide]
14 | 481 | CN(C(=O)c1ccc2nc(N)c3cnn(C)c3c2c1)[C@@H]1COc2cc(-c3ccc(C(F)(F)F)cc3F)ccc21 [Example 661, 4-amino-N-((3S)-6-(2-fluoro-4-(trifluoromethyl)phenyl)-2,3-dihydro-1-benzofuran-3-yl)-N,1-dimethyl-1H-pyrazolo[4,3-c]quinoline-8-carboxamide]
21 | 1120 | CN(C(=O)c1ccc2nc(N)c3cnn(C)c3c2c1)[C@@H]1COc2cc(-c3ccnc(OCC(F)(F)F)c3)ccc21 [Example 662, 4-amino-N,1-dimethyl-N-((3S)-6-(2-(2,2,2-trifluoroethoxy)-4-pyridinyl)-2,3-dihydro-1-benzofuran-3-yl)-1H-pyrazolo[4,3-c]quinoline-8-carboxamide]
6 | 227 | CN(C(=O)c1ccc2nc(N)c3cnn(C)c3c2c1)[C@@H]1COCc2nc(C3CC3)ccc21 [Example 684, 4-amino-N-((5S)-2-cyclopropyl-5,8-dihydro-6H-pyrano[3,4-b]pyridin-5-yl)-N,1-dimethyl-1H-pyrazolo[4,3-c]quinoline-8-carboxamide]
22 | 1520 | COC(=O)c1ccc2c(c1)OC[C@H]2N(C)C(=O)c1ccc2nc(N)c3cnn(C)c3c2c1 [Example 685, methyl (S)-3-(4-amino-N,1-dimethyl-1H-pyrazolo[4,3-c]quinoline-8-carboxamido)-2,3-dihydrobenzofuran-6-carboxylate]
12 | 846 | CN(C(=O)c1ccc2nc(N)c3cnn(C)c3c2c1)[C@@H]1COc2cc(Cl)ccc21 [Example 687, (S)-4-amino-N-(6-chloro-2,3-dihydrobenzofuran-3-yl)-N,1-dimethyl-1H-pyrazolo[4,3-c]quinoline-8-carboxamide 2,2,2-trifluoroacetate]
5 | 431 | CN(C(=O)c1ccc2nc(N)c3cnn(C)c3c2c1)[C@@H]1COc2cc(C3CCOCC3)ccc21 [Example 688, (S)-4-amino-N,1-dimethyl-N-(6-(tetrahydro-2H-pyran-4-yl)-2,3-dihydrobenzofuran-3-yl)-1H-pyrazolo[4,3-c]quinoline-8-carboxamide]
